Nc1nc(Cl)cc(Cl)n1 showed a solubility (mole fraction) (in 1,4-dioxane, 288.15 K) of 0.0122, a solubility (mole fraction) (in 1,4-dioxane, 293.15 K) of 0.0139 and a solubility (mole fraction) (in 1,4-dioxane, 298.15 K) of 0.016. It also gave a solubility (mole fraction) (in 1,4-dioxane, 303.15 K) of 0.0182, a solubility (mole fraction) (in 1,4-dioxane, 308.15 K) of 0.0205 and a solubility (mole fraction) (in 1,4-dioxane, 313.15 K) of 0.0233. It also gave a solubility (mole fraction) (in 1,4-dioxane, 318.15 K) of 0.0262, a solubility (mole fraction) (in acetone, 278.15 K) of 0.00538 and a solubility (mole fraction) (in acetone, 283.15 K) of 0.00618. For the same molecule, the solubility (mole fraction) (in acetone, 288.15 K) was 0.0073, the solubility (mole fraction) (in acetone, 293.15 K) was 0.00848 and the solubility (mole fraction) (in acetone, 298.15 K) was 0.0097. The solubility (mole fraction) (in acetone, 303.15 K) was 0.011, the solubility (mole fraction) (in acetone, 308.15 K) was 0.0126 and the solubility (mole fraction) (in acetone, 313.15 K) was 0.0143. For the same molecule, the solubility (mole fraction) (in acetone, 318.15 K) was 0.0163, the solubility (mole fraction) (in acetonitrile, 278.15 K) was 0.00128 and the solubility (mole fraction) (in acetonitrile, 283.15 K) was 0.00155. For the same molecule, the solubility (mole fraction) (in acetonitrile, 288.15 K) was 0.00186, the solubility (mole fraction) (in acetonitrile, 293.15 K) was 0.00223 and the solubility (mole fraction) (in acetonitrile, 298.15 K) was 0.00265. The solubility (mole fraction) (in acetonitrile, 303.15 K) was 0.00314, the solubility (mole fraction) (in acetonitrile, 308.15 K) was 0.0037 and the solubility (mole fraction) (in acetonitrile, 313.15 K) was 0.00434. It also gave a solubility (mole fraction) (in acetonitrile, 318.15 K) of 0.00505, a solubility (mole fraction) (in cyclohexane, 283.15 K) of 4.26e-05 and a solubility (mole fraction) (in cyclohexane, 288.15 K) of 5.55e-05. The solubility (mole fraction) (in cyclohexane, 293.15 K) was 7.15e-05, the solubility (mole fraction) (in cyclohexane, 298.15 K) was 9.05e-05 and the solubility (mole fraction) (in cyclohexane, 303.15 K) was 0.000115. For the same molecule, the solubility (mole fraction) (in cyclohexane, 308.15 K) was 0.000144, the solubility (mole fraction) (in cyclohexane, 313.15 K) was 0.000181 and the solubility (mole fraction) (in cyclohexane, 318.15 K) was 0.000224. For the same molecule, the solubility (mole fraction) (in ethanol, 278.15 K) was 0.000929, the solubility (mole fraction) (in ethanol, 283.15 K) was 0.00111 and the solubility (mole fraction) (in ethanol, 288.15 K) was 0.00132. The solubility (mole fraction) (in ethanol, 293.15 K) was 0.00158, the solubility (mole fraction) (in ethanol, 298.15 K) was 0.00183 and the solubility (mole fraction) (in ethanol, 303.15 K) was 0.00215. For the same molecule, the solubility (mole fraction) (in ethanol, 308.15 K) was 0.00251, the solubility (mole fraction) (in ethanol, 313.15 K) was 0.00293 and the solubility (mole fraction) (in ethanol, 318.15 K) was 0.00339. For the same molecule, the solubility (mole fraction) (in ethyl acetate, 278.15 K) was 0.00458, the solubility (mole fraction) (in ethyl acetate, 283.15 K) was 0.00535 and the solubility (mole fraction) (in ethyl acetate, 288.15 K) was 0.00631. The solubility (mole fraction) (in ethyl acetate, 293.15 K) was 0.0073, the solubility (mole fraction) (in ethyl acetate, 298.15 K) was 0.00847 and the solubility (mole fraction) (in ethyl acetate, 303.15 K) was 0.00981. It also gave a solubility (mole fraction) (in ethyl acetate, 308.15 K) of 0.0113, a solubility (mole fraction) (in ethyl acetate, 313.15 K) of 0.0129 and a solubility (mole fraction) (in ethyl acetate, 318.15 K) of 0.0147. For the same molecule, the solubility (mole fraction) (in isopropanol, 278.15 K) was 0.000517, the solubility (mole fraction) (in isopropanol, 283.15 K) was 0.000645 and the solubility (mole fraction) (in isopropanol, 288.15 K) was 0.000808. The solubility (mole fraction) (in isopropanol, 293.15 K) was 0.000989, the solubility (mole fraction) (in isopropanol, 298.15 K) was 0.00121 and the solubility (mole fraction) (in isopropanol, 303.15 K) was 0.00148. The solubility (mole fraction) (in isopropanol, 308.15 K) was 0.00178, the solubility (mole fraction) (in isopropanol, 313.15 K) was 0.00215 and the solubility (mole fraction) (in isopropanol, 318.15 K) was 0.00257. For the same molecule, the solubility (mole fraction) (in methanol, 278.15 K) was 0.00113, the solubility (mole fraction) (in methanol, 283.15 K) was 0.00132 and the solubility (mole fraction) (in methanol, 288.15 K) was 0.00158. It also gave a solubility (mole fraction) (in methanol, 293.15 K) of 0.00183, a solubility (mole fraction) (in methanol, 298.15 K) of 0.00218 and a solubility (mole fraction) (in methanol, 303.15 K) of 0.00251. It also gave a solubility (mole fraction) (in methanol, 308.15 K) of 0.00293, a solubility (mole fraction) (in methanol, 313.15 K) of 0.00335 and a solubility (mole fraction) (in methanol, 318.15 K) of 0.00389. For the same molecule, the solubility (mole fraction) (in n-propanol, 278.15 K) was 0.000792, the solubility (mole fraction) (in n-propanol, 283.15 K) was 0.00095 and the solubility (mole fraction) (in n-propanol, 288.15 K) was 0.00113. For the same molecule, the solubility (mole fraction) (in n-propanol, 293.15 K) was 0.00136, the solubility (mole fraction) (in n-propanol, 298.15 K) was 0.00163 and the solubility (mole fraction) (in n-propanol, 303.15 K) was 0.00192. It also gave a solubility (mole fraction) (in n-propanol, 308.15 K) of 0.00226, a solubility (mole fraction) (in n-propanol, 313.15 K) of 0.00265 and a solubility (mole fraction) (in n-propanol, 318.15 K) of 0.00313. For the same molecule, the solubility (mole fraction) (in toluene, 278.15 K) was 0.000551, the solubility (mole fraction) (in toluene, 283.15 K) was 0.000695 and the solubility (mole fraction) (in toluene, 288.15 K) was 0.000856. The solubility (mole fraction) (in toluene, 293.15 K) was 0.00105, the solubility (mole fraction) (in toluene, 298.15 K) was 0.00128 and the solubility (mole fraction) (in toluene, 303.15 K) was 0.00156. It also gave a solubility (mole fraction) (in toluene, 308.15 K) of 0.00188, a solubility (mole fraction) (in toluene, 313.15 K) of 0.00228 and a solubility (mole fraction) (in toluene, 318.15 K) of 0.00274.

Reference: BigSolDB 2.1
